Assay results reported in PubChem BioAssay (NCI).
Several values for one entry are separate records, joined by “and”; a condition that tells them apart may be missing. Equal entries are not always repeated.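 Interpolation was linear, between the two tested concentrations surrounding the appropriate level; five concentrations were tested over 48 hours in 96-well plates. GI50 marks 50% less growth. TGI is the concentration that stops growth completely.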

Assays:
Test in all cases: NCI tumour cell line growth inhibition, 48 h
BT-549 breast = system: BT-549 breast
OVCAR-8 ovarian = system: OVCAR-8 ovarian
NCI/ADR-RES ovarian = system: NCI/ADR-RES ovarian
NCI-H226 lung = system: NCI-H226 lung
CAKI-1 renal = system: CAKI-1 renal
COLO 205 colon = system: COLO 205 colon
NCI-H460 lung = system: NCI-H460 lung
786-0 renal = system: 786-0 renal
SF-539 CNS = system: SF-539 CNS
UACC-257 melanoma = system: UACC-257 melanoma
HCT-15 colon = system: HCT-15 colon
DMS 273 small cell lung = system: DMS 273 small cell lung
MALME-3M melanoma = system: MALME-3M melanoma
HOP-18 NSCLC = system: HOP-18 NSCLC
RPMI-8226 leukemia = system: RPMI-8226 leukemia
DU-145 prostate = system: DU-145 prostate
SNB-78 CNS = system: SNB-78 CNS
SW-620 colon = system: SW-620 colon
ACHN renal = system: ACHN renal
SN12C renal = system: SN12C renal
T-47D breast = system: T-47D breast
SR leukemia = system: SR leukemia
OVCAR-5 ovarian = system: OVCAR-5 ovarian
SK-MEL-5 melanoma = system: SK-MEL-5 melanoma
M19-MEL melanoma = system: M19-MEL melanoma
NCI-H522 lung = system: NCI-H522 lung
HOP-92 NSCLC = system: HOP-92 NSCLC
HS 578T breast = system: HS 578T breast
SK-OV-3 ovarian = system: SK-OV-3 ovarian
PC-3 prostate = system: PC-3 prostate
M14 melanoma = system: M14 melanoma
NCI-H23 lung = system: NCI-H23 lung
P388 leukemia = system: P388 leukemia
EKVX NSCLC = system: EKVX NSCLC
CCRF-CEM leukemia = system: CCRF-CEM leukemia
IGROV1 ovarian = system: IGROV1 ovarian
P388/ADR leukemia = system: P388/ADR leukemia
MDA-MB-231 breast = system: MDA-MB-231 breast
U251 CNS = system: U251 CNS
SNB-19 CNS = system: SNB-19 CNS
SK-MEL-2 melanoma = system: SK-MEL-2 melanoma
HCT-116 colon = system: HCT-116 colon
XF 498 CNS = system: XF 498 CNS
MCF7 breast = system: MCF7 breast
KM20L2 colon = system: KM20L2 colon
KM12 colon = system: KM12 colon
OVCAR-4 ovarian = system: OVCAR-4 ovarian
A549 NSCLC = system: A549 NSCLC
HCC-2998 colon = system: HCC-2998 colon
HOP-62 NSCLC = system: HOP-62 NSCLC
K-562 leukemia = system: K-562 leukemia
SF-268 CNS = system: SF-268 CNS
SNB-75 CNS = system: SNB-75 CNS
OVCAR-3 ovarian = system: OVCAR-3 ovarian
LOX IMVI melanoma = system: LOX IMVI melanoma
TK-10 renal = system: TK-10 renal
DMS 114 small cell lung = system: DMS 114 small cell lung
RXF 393 renal = system: RXF 393 renal
HT29 colon = system: HT29 colon
UACC-62 melanoma = system: UACC-62 melanoma
MOLT-4 leukemia = system: MOLT-4 leukemia
SK-MEL-28 melanoma = system: SK-MEL-28 melanoma
SF-295 CNS = system: SF-295 CNS
MDA-MB-435 = system: MDA-MB-435
UO-31 renal = system: UO-31 renal
DLD-1 colon = system: DLD-1 colon

SMILES: O=C1C=C2C(=CCOC2O)O1 (stereo not drawn)
- GI50 (BT-549 breast): 3.28 µM
- TGI (BT-549 breast): 9.67 µM
- GI50 (OVCAR-8 ovarian): 0.734 µM and 2.57 µM
- TGI (OVCAR-8 ovarian): 5.07 µM and 9.22 µM
- GI50 (NCI/ADR-RES ovarian): 2.76 µM
- TGI (NCI/ADR-RES ovarian): 4.35 µM and 12.5 µM
- TGI (NCI-H226 lung): 6.92 µM
- GI50 (CAKI-1 renal): 1.06 µM and 1 µM
- TGI (CAKI-1 renal): 2.3 µM and 2.5 µM
- GI50 (COLO 205 colon): 0.395 µM and 0.655 µM
- TGI (COLO 205 colon): 1.04 µM and 1.97 µM
- GI50 (NCI-H460 lung): 3.86 µM
- TGI (NCI-H460 lung): 2.41 µM and 18.3 µM
- GI50 (786-0 renal): 2.67 µM
- TGI (786-0 renal): 7.06 µM
- GI50 (SF-539 CNS): 0.941 µM and 1.77 µM
- TGI (SF-539 CNS): 2.13 µM and 4.57 µM
- TGI (UACC-257 melanoma): 3.85 µM
- GI50 (HCT-15 colon): 1.25 µM
- TGI (HCT-15 colon): 1.98 µM and 3.23 µM
- TGI (DMS 273 small cell lung): 2.41 µM
- TGI (MALME-3M melanoma): 2.04 µM
- TGI (HOP-18 NSCLC): 4.77 µM
- GI50 (RPMI-8226 leukemia): 3.6 µM
- GI50 (DU-145 prostate): 2.07 µM
- TGI (DU-145 prostate): 6.48 µM
- TGI (SNB-78 CNS): 11.6 µM
- GI50 (SW-620 colon): 0.395 µM and 0.443 µM
- TGI (SW-620 colon): 1.23 µM and 1.88 µM
- GI50 (ACHN renal): 1.28 µM
- TGI (ACHN renal): 3.34 µM
- GI50 (SN12C renal): 2.59 µM
- TGI (SN12C renal): 1.86 µM and 10 µM
- GI50 (T-47D breast): 1.4 µM
- TGI (T-47D breast): 4.64 µM
- GI50 (SR leukemia): 2.11 µM
- TGI (SR leukemia): 8.51 µM
- GI50 (OVCAR-5 ovarian): 2.97 µM
- TGI (OVCAR-5 ovarian): 15.8 µM and 7.74 µM
- GI50 (SK-MEL-5 melanoma): 2.43 µM
- TGI (SK-MEL-5 melanoma): 3.17 µM and 9.05 µM
- TGI (M19-MEL melanoma): 8.14 µM
- GI50 (NCI-H522 lung): 1.12 µM
- TGI (NCI-H522 lung): 1.07 µM and 2.52 µM
- GI50 (HOP-92 NSCLC): 2.64 µM
- TGI (HOP-92 NSCLC): 6.11 µM and 7.84 µM
- GI50 (HS 578T breast): 2.14 µM
- TGI (HS 578T breast): 9.84 µM
- GI50 (SK-OV-3 ovarian): 11.5 µM and 12.2 µM
- TGI (SK-OV-3 ovarian): 20.6 µM and 24.6 µM
- GI50 (PC-3 prostate): 4.69 µM
- TGI (PC-3 prostate): 17.1 µM
- GI50 (M14 melanoma): 1.59 µM
- TGI (M14 melanoma): 3.08 µM
- GI50 (NCI-H23 lung): 2.73 µM
- TGI (NCI-H23 lung): 4.14 µM and 10.6 µM
- TGI (P388 leukemia): 0.439 µM
- GI50 (EKVX NSCLC): 1.76 µM and 10.6 µM
- TGI (EKVX NSCLC): 4.64 µM and 40.4 µM
- GI50 (CCRF-CEM leukemia): 1.11 µM
- TGI (CCRF-CEM leukemia): 0.709 µM and 6.03 µM
- GI50 (IGROV1 ovarian): 2.59 µM
- TGI (IGROV1 ovarian): 9.78 µM and 6.24 µM
- TGI (P388/ADR leukemia): 0.569 µM
- GI50 (MDA-MB-231 breast): 1.96 µM
- TGI (MDA-MB-231 breast): 5.07 µM
- GI50 (U251 CNS): 6.92 µM and 2.65 µM
- TGI (U251 CNS): 14.6 µM and 10 µM
- GI50 (SNB-19 CNS): 3.23 µM and 12.8 µM
- TGI (SNB-19 CNS): 9.77 µM and 27.8 µM
- TGI (SK-MEL-2 melanoma): 13.6 µM
- GI50 (HCT-116 colon): 1.14 µM
- TGI (HCT-116 colon): 0.544 µM and 2.4 µM
- TGI (XF 498 CNS): 0.419 µM
- TGI (MCF7 breast): 17.3 µM and 13.7 µM
- TGI (KM20L2 colon): 12.1 µM
- GI50 (KM12 colon): 0.783 µM and 3.08 µM
- TGI (KM12 colon): 1.85 µM and 11.2 µM
- TGI (OVCAR-4 ovarian): 12.5 µM
- GI50 (A549 NSCLC): 5.51 µM
- TGI (A549 NSCLC): 21.2 µM and 22.2 µM
- GI50 (HCC-2998 colon): 11.4 µM
- TGI (HOP-62 NSCLC): 20.5 µM and 23.4 µM
- GI50 (K-562 leukemia): 0.905 µM and 1.79 µM
- TGI (K-562 leukemia): 3.22 µM and 10.7 µM
- GI50 (SF-268 CNS): 1.1 µM and 3.66 µM
- TGI (SF-268 CNS): 8.18 µM and 13.9 µM
- GI50 (SNB-75 CNS): 2.82 µM
- TGI (SNB-75 CNS): 10.1 µM and 13.2 µM
- GI50 (OVCAR-3 ovarian): 1.7 µM and 0.664 µM
- TGI (OVCAR-3 ovarian): 4.06 µM and 2.19 µM
- GI50 (LOX IMVI melanoma): 0.227 µM and 1.57 µM
- TGI (LOX IMVI melanoma): 0.665 µM and 3.33 µM
- GI50 (TK-10 renal): 0.259 µM
- TGI (TK-10 renal): 0.652 µM
- TGI (DMS 114 small cell lung): 3.29 µM
- GI50 (RXF 393 renal): 0.213 µM and 1.1 µM
- TGI (RXF 393 renal): 0.761 µM and 3 µM
- GI50 (HT29 colon): 6.05 µM and 1.16 µM
- TGI (HT29 colon): 22.7 µM and 3.37 µM
- GI50 (UACC-62 melanoma): 1.55 µM
- TGI (UACC-62 melanoma): 1.64 µM and 3.2 µM
- GI50 (MOLT-4 leukemia): 3.66 µM
- TGI (MOLT-4 leukemia): 1.61 µM and 10.7 µM
- GI50 (SK-MEL-28 melanoma): 1.28 µM and 2.37 µM
- TGI (SK-MEL-28 melanoma): 3.38 µM and 5.83 µM
- GI50 (SF-295 CNS): 3.34 µM and 6.25 µM
- TGI (SF-295 CNS): 8.88 µM and 22.4 µM
- GI50 (MDA-MB-435): 1.64 µM
- TGI (MDA-MB-435): 3.86 µM
- GI50 (UO-31 renal): 3.98 µM and 1.24 µM
- TGI (UO-31 renal): 8.77 µM and 6.43 µM
- TGI (DLD-1 colon): 2.07 µM
